Experimental data as given in ChEMBL document CHEMBL1128031, “The design of dipeptide helical mimetics: the synthesis and biological activity of trisubstituted indanes” (Bioorg Med Chem Lett, 1994).
Peptide text beside a SMILES is read from it. * marks the point of attachment. Cbz = O=C(OCc1ccccc1)*

Tests used:
[1] = target: T1, Neuromedin-K receptor (Homo sapiens, UniProt P29371); test: Inhibition of [125I][MePhe]-NKB binding to human Tachykinin receptor 3 in CHO cells; format: cell-based
T1 sequence (P29371 whole entry): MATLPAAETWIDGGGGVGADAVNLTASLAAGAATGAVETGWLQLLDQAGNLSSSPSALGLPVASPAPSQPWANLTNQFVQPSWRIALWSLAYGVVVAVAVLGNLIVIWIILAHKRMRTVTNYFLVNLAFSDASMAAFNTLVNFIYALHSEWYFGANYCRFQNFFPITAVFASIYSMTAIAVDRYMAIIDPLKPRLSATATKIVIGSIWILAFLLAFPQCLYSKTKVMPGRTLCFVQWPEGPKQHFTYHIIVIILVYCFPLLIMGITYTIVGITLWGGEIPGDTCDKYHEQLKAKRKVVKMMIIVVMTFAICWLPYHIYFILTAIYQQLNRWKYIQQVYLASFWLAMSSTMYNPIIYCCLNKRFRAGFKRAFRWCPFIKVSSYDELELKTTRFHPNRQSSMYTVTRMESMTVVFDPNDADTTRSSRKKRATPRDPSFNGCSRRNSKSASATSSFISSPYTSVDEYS

[2] = target: Substance-P receptor (Homo sapiens, UniProt P25103); test: Inhibition of [125I]BH-SP binding to tachykinin NK1 receptor in human IM-9 cells; format: cell-based
Chain of Substance-P receptor (P25103 whole entry): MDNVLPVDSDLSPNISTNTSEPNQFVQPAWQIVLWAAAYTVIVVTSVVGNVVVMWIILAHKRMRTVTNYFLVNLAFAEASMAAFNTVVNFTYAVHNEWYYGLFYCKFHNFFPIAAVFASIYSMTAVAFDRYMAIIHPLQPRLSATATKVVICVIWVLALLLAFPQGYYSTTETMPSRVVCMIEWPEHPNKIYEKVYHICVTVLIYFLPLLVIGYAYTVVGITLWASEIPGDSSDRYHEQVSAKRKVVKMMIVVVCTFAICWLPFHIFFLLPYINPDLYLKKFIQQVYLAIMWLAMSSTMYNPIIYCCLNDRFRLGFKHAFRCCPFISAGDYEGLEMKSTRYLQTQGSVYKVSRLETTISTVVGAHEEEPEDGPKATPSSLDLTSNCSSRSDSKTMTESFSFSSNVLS

IC50 [1] [µM] | IC50 [2] [µM] | Structure (SMILES)
5.2 |  | CC(C)(C)CNC(=O)C1(Cc2ccccc2)CCc2ccc(Cc3ccccc3)cc21 (stereo unspecified)
3 | 2.4 | O=C(NCCc1ccccc1)C1(Cc2ccccc2)CCc2ccc(Cc3ccccc3)cc21 (stereo unspecified)
8 | 3 | COC(=O)C1(Cc2ccccc2)CCc2ccc(Cc3ccccc3)cc21 (stereo unspecified)
 | 9.3 | NC(=O)[C@H](Cc1ccccc1)NC(=O)[C@H](Cc1c[nH]c2ccccc12)NC(=O)OCc1ccccc1 (Cbz-Trp-Phe-NH2)
